The text below walks through data of article PMC7887271, “Fast acting allosteric phosphofructokinase inhibitors block trypanosome glycolysis and cure acute African trypanosomiasis in mice” (Nature Communications, 2021).

Broadly, the EC50 is the concentration needed to bring the measured effect to its halfway point. Usually IC50 stands for the concentration needed to halve the response being measured.

Test [1] relates to bloodstream form of T. brucei strain Lister 427. The experiment in a line: T. b. brucei 427 growth inhibition assay (LILiT, Alamar Blue). It is filed as cell-based. The conditions noted are these: Trypanosoma brucei, 72 h, read-out: EC50 (µM) in vitro parasite killing of bloodstream form T. brucei Lister 427 (Tbb EC50), 72 h, Alamar Blue. The procedure: The ‘in vitro’ parasite killing assay used the BSF of the non-human pathogenic subspecies T. b. brucei, strain Lister 427, cultured in HMI-9 medium containing 10% foetal bovine serum. A second cell line, T. b. brucei GVR35-Luc2 which constitutively expresses firefly luciferase was grown in Modified HMI-9 plus 20% foetal calf serum supplemented with 20% Serum Plus (Sigma) and 0.15 μg mL^−1 puromycin. Both strains of trypanosomes were cultured in T-25 vented cap flasks at 37 °C and 5% CO2.
The ‘in vitro’ parasite killing assay used the bloodstream-form of the non-human pathogenic subspecies T. b. brucei, strain Lister 427 (a gift from Professor Keith Matthews) which was cultured in HMI-9 medium containing 10% fetal bovine serum (FBS). A second cell line, T. b. brucei GVR35-Luc2 which constitutively expresses firefly luciferase (5) was grown in Modified HMI-9 plus 20% fetal calf serum (FCS) supplemented with 20% Serum Plus (Sigma) and 0.15 μg/ml puromycin as described previously (5). Both strains of trypanosomes were cultured in T-25 vented cap flasks at 37 °C and 5% CO2.
Growth inhibition tests of bloodstream-form T. b. brucei Lister 427 were carried out using the LILiT (long incubation low inoculation test) method (6). The parasites were cultured in complete HMI-9 medium containing 10% FBS in 96-well plates (Greiner Inc.) with approximately 2500 trypanosomes per well. A 3-fold dilution series (in the range from 45 µM – 0.020 µM) of the inhibitor compounds were prepared in the plate; the maximal concentration of DMSO was 0.45%. After 72 hours of incubation at 37 °C and 5% CO2, 50 µl Alamar Blue (0.2% diluted with Dulbecco’s-phosphate buffered saline (D-PBS, Sigma) was added to each well and plates were incubated at 37 °C and 5% CO2 for 4 hours. Fluorescence was read on the BMG multiplate reader using an excitation wavelength of 530 nm and an emission wavelength of 590 nm.
On the technique in general: The colour change of resazurin is a common sign of viable cells or microbes.

Test [2] deals with T1, T. brucei phosphofructokinase (TbPFK) (Trypanosoma brucei brucei, UniProt O15648).
T1 construct: made in house; host or cells: Escherichia coli C41 (pET28a, codon optimised gene)
T1 sequence (O15648 1-487): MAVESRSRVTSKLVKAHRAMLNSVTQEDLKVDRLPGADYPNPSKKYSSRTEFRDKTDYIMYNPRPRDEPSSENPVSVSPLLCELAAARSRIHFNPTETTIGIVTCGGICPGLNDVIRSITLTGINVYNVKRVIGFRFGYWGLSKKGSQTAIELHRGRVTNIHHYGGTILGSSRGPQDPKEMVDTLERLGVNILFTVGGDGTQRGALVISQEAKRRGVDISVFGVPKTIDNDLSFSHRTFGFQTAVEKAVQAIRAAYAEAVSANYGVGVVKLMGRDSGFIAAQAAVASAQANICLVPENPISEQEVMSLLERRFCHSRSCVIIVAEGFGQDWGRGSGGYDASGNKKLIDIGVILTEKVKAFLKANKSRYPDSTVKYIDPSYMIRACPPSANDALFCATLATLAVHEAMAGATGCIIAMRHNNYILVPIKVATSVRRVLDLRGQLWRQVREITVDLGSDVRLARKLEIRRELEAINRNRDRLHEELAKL
The experiment in a line: ADP-Glo assay for measuring PFK inhibition. It is filed as biochemical. The procedure:
Parasite enzyme kinetic data were measured using N-terminally His6-tagged TbPFK expressed in Escherichia coli C41 cells, using a codon optimised gene inserted in a pET28a vector (Supplementary Methods 1). Recombinant human PFKs were expressed in PFK-deficient Saccharomyces cerevisiae. PFK enzyme inhibition was measured using an ADP-Glo^TM assay (Promega) in a 96-well plate format (Supplementary Methods 2.1), using a Spectramax© M5 Multimode Plate Reader to measure luminescence values which were converted to ADP concentrations. IC50 values were determined using a sigmoidal curve fitting algorithm in Kaleidagraph 4 (Supplementary Fig. 1). Mode of action studies were carried out using a linked enzyme assay coupling the forward reaction of TbPFK to the M1 isoform of human pyruvate kinase followed by lactate dehydrogenase. The change in UV absorbance at 340 nm resulting from the conversion of NADH to NAD^+ was measured at 25 °C in ‘kinetic mode’ on a Spectramax© M5 Multimode plate reader. Initial velocities were plotted against substrate concentration to give curves showing non-competitive inhibition (Supplementary Fig. 2). An alternative linked enzyme assay was developed to control for the potential inhibitory activity of ATP on human PFK (Supplementary Methods 2.3).
The ADP-Glo™ end-point assay kit manufactured by Promega (cat. No. V9102) was used to measure ADP produced in the phosphofructokinase reaction:
Following this kinase reaction, the addition of a reagent results in any unused background ATP being removed and the reaction is sequestered. A second reagent is then added to convert the remaining ADP to ATP which is coupled to the luciferase/luciferin reaction to produce light. ‘Ultrapure’ ATP and ADP from Promega were used to reduce background noise. All reagents additional to those provided in the Promega ADP-Glo™ kit were purchased from Sigma-Aldrich.
The assay buffer comprised 50 mM triethanolamine (TEA), 10 mM MgCl2, 5 mM KCl, 0.1% w/v bovine serum albumin (BSA), 0.005% Tween-20, 1% DMSO, pH 7.4. A 3-fold serial dilution of 250x inhibitor stocks was carried out in 100% DMSO. 2 µl of these dilutions was added to 198 µl assay buffer and mixed well using a multichannel pipette. […] Concentration ranges of inhibitor compounds were 40 - 0.006 µM (final concentration, 1% DMSO). The PFK reaction in the presence of inhibitor was carried out using 10 µl of 1 µg/ml PFK (final concentration 0.4 µg/ml) which was added to 10 µl of the 1% DMSO inhibitor compound serial dilutions in a white, non-binding 96-well plate (Greiner BioOne 655904). CTCB-001 was used as a positive control at a final concentration of 5 µM. Assay buffer containing 1% DMSO was added instead of inhibitor compound for the negative control. The protein/inhibitor mixture was incubated for 10 minutes at room temperature (RT). The kinase reaction was started by adding a 5x ATP/F6P stock in assay buffer (final concentrations 0.5 mM F6P and 0.1 mM ATP). Plates were then sealed, centrifuged at 560 x g for 30 seconds and incubated at RT for 30 minutes. 25 µl of ‘ADP-Glo™ Reagent’ was then added to each well, mixed using a multichannel pipette and incubated at room temperature for 40 minutes. 50 µl of ‘Kinase Detection Reagent’ was added and incubated for 50 minutes at RT. The luminescence was recorded using a Spectramax© M5 Multi-mode Plate Reader (Molecular Devices) in single-point mode, with an integration time of 750 milliseconds. The luminescence values were converted to ADP concentration using a standard calibration curve for ADP. The resulting ADP concentrations were plotted as a function of inhibitor compound concentration using Kaleidagraph 4.0 software. The data were analysed using non-linear regression and a sigmoidal curve was fitted (Supplementary Figure 1) to determine the IC50. Kaleidagraph 4.0 uses the Levenberg-Marquardt algorithm in an iterative procedure to fit non-linear curves. […] The slope of the curve at the midpoint (m4) was set to 1.
A general note: ADP-Glo turns the ADP formed in a reaction into a luminescent signal.

Test [3] addresses T2, TbPFK (Trypanosoma brucei brucei, UniProt O15648).
T2 construct: made in house; host or cells: Escherichia coli C41 (pET28a, codon optimised gene)
T2 sequence (O15648 1-487): T1 sequence (O15648 1-487)
The conditions noted are these: amidosulfonamide series; cited from earlier work.

SMILES strings stand for the structures. “And” between values parts separate entries of the source, which are not always exact repeats. Equal values may be shown once.

Regarding `O=C(Cc1ccc(Cl)c(Cl)c1)Nc1ccc(S(=O)(=O)Nc2ccon2)cc1` [CTCB-001], in test [1], the EC50 amounted to 20.2 ± 2.1 µM. The IC50 in test [2] (Average IC50 (µM), source data for Fig. 2 and Table 1) was 0.25 µM; in test [2] (IC50 (µM), single dated measurement, source data), 194 nM (2×) and 221 nM and 189 nM and 230 nM and 436 nM and 223 nM and 261 nM (2×); in test [3] it was approximately 200 nM.
